Measurements from patent US20220401514A1, “ANTIMICROBIAL, BACTERIOPHAGE-DERIVED POLYPEPTIDES AND THEIR USE AGAINST GRAM-NEGATIVE AND ACID-FAST BACTERIA” (CONTRAFECT CORPORATION, priority 2019, published 2022).
Where two headings read alike, the source gives them in different places.

How the values were obtained:
[1] = tested on: carbapenem-resistant P. aeruginosa clinical isolate CFS-1292; assay: MIC by modified CLSI broth microdilution against P. aeruginosa CFS-1292 (CAA, CAA + human serum); format: cell-based, Pseudomonas aeruginosa
[2] = tested on: P. aeruginosa strain CFS-1292; assay: MIC in presence and absence of NaCl (140 mM); format: cell-based, Pseudomonas aeruginosa
Protocol: Certain Chp peptides were evaluated over a range of physiological NaCl levels and pH values, and were further evaluated for activity in the presence of various divalent cations.

[3] = tested on: P. aeruginosa strain CFS-1292; assay: MIC in presence of mouse, rat, rabbit and human serum ([…] each); format: cell-based, Pseudomonas aeruginosa; settings: P. aeruginosa CFS-1292
Protocol: The activity of several Chp peptides against P. aeruginosa strain CFS-1292 in animal serum was evaluated. […] Rat, mouse, and rabbit serum were all obtained from pooled gender samples.

[4] = tested on: Klebsiella pneumoniae; format: cell-based
Protocol: (§1) Determination of Minimal Inhibitory Concentrations (MIC).
Additional MIC testing was performed for several peptides against the ESKAPE pathogens Escherichia coli, Enterobacter cloacae, Klebsiella pneumoniae, and Acinetobacter baumannii, in CAA supplemented with human serum (Table D).

[5] = tested on: M. kansasii Hauduroy ATCC 12478; assay: 45 hr MIC against M. kansasii (NTM), Mueller Hinton broth; format: cell-based, Mycobacterium kansasii
[6] = tested on: Mycobacterium tuberculosis strains
Protocol: MIC values for various Chp peptides were determined using the CLSI method for broth microdilution in 96-well microtiter format.
Next, MIC values for various Chp peptides were determined using the CLSI method above for broth microdilution in 96-well microtiter format for two different Mycobacterium tuberculosis strains. The MIC was determined as explained above for the NTM strains.

[7] = tested on: carbapenem-resistant bacterial strains; assay: organism not typed; format: cell-based
Description: as §1

[8] = tested on: Escherichia coli; assay: microbe, parasite or virus in culture; format: cell-based
Outline: (§2)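 Human serum was added to CAA broth for these MIC determinations with peptides.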

[9] = tested on: Enterobacter cloacae; assay: microbe, parasite or virus in culture; format: cell-based
Outline: as §2

[10] = tested on: P. aeruginosa strain CFS-1292; assay: MIC at pH 6, pH 7 and pH 8; format: cell-based, Pseudomonas aeruginosa
Protocol: The Chp peptides were further evaluated at varying pH levels. The MIC values were determined at pH 6, pH 7, and pH 8 for 18 different Chp peptides against P. aeruginosa strain CFS-1292. […]

[11] = tested on: M. scrofulaceum; assay: 45 hr MIC against M. scrofulaceum (NTM); format: cell-based, Mycobacterium scrofulaceum; settings: M. scrofulaceum Prissick and Masson ATCC 19981
[12] = tested on: P. aeruginosa strain CFS-1292; assay: MIC in presence of divalent cations (calcium chloride, magnesium sulfate); format: cell-based, Pseudomonas aeruginosa
Protocol: Next, Chp peptides were evaluated in the presence of different divalent cations. […]; (2) in the presence of 2 mM calcium chloride alone; (3) in the presence of 1 mM magnesium sulfate alone; and (4) in the presence of both 2 mM calcium chloride and 1 mM magnesium sulfate. […]

[13] = tested on: M. intracellulare; assay: 45 hr MIC against M. intracellulare (NTM); format: cell-based, Mycobacterium intracellulare; settings: M. intracellulare (Cuttino and McCabe) Runyon ATCC 13950
[14] = tested on: M. smegmatis; assay: 45 hr MIC against M. smegmatis (NTM), Mueller Hinton broth; format: cell-based, Mycobacterium smegmatis
[15] = tested on: Pseudomonas aeruginosa; assay: microbe, parasite or virus in culture; format: cell-based; settings: for MIC: CAA without human serum
[16] = tested on: Acinetobacter baumannii; assay: microbe, parasite or virus in culture; format: cell-based
[17] = tested on: P. aeruginosa strain CFS-1292; assay: MIC in presence and absence of Survanta pulmonary surfactant; format: cell-based, Pseudomonas aeruginosa
[18] = tested on: Pseudomonas aeruginosa, Escherichia coli, Enterobacter cloacae, Klebsiella pneumoniae, and Acinetobacter baumannii; assay: MIC against a range of Gram-negative organisms (statements covering several species); format: cell-based; settings: Tables 40-44 isolates
Outline: as §2

[19] = tested on: M. fortuitum; assay: 45 hr MIC against M. fortuitum (NTM); format: cell-based, Mycobacterium fortuitum; settings: M. fortuitum subsp. Fortuitum da Costa Cruz. ATCC 6841
[20] = tested on: Klebsiella pneumoniae; assay: microbe, parasite or virus in culture; format: cell-based; settings: CAA without human serum
[21] = K. pneumoniae isolates (n per peptide in table)
[22] = E. coli isolates (n per peptide in table)
[23] = E. cloacae isolates (n per peptide in table)
[24] = P. aeruginosa isolates (n per peptide in table)
[25] = A. baumannii isolates (n per peptide in table)

MRLKMARRRYRLPRRRSRRLFSRTALRMHPRNRLRRIMRGGIRF [Chp2]
0.125 to 1 µg/mL: MIC Range [4, 21] | MIC Range [9, 23]
0.25 µg/mL: MIC ([10]; CAA media (pH 7)) | MIC ([10]; pH 6) | MIC ([12]; CAA media + 2 mM CaCl2) | MIC ([12]; CAA media + + 1 mM MgSO4)
1 µg/mL: MIC100 [4, 21] | MIC ([7]; carbapenem-resistant isolate PA20) | MIC ([7]; carbapenem-resistant isolate PA21) | MIC ([7]; carbapenem-resistant isolate PA22) | MIC ([7]; carbapenem-resistant isolate PA23) | MIC ([7]; carbapenem-resistant isolate PA24) | MIC ([8]; Escherichia coli ATCC 25922, CAA supplemented with human serum) | MIC100 [9, 23] | MIC ([9]; Enterobacter cloacae ATCC 13047, CAA supplemented with human serum) | MIC50 [15, 24] | MIC100 [15, 24] | MIC ([17]; CAA media + 0.19 mg/mL Survanta) | MIC ([17]; CAA media + […] Survanta)
16 µg/mL: MIC ([6]; Mycobacterium tuberculosis (Zopf) Lehmann and Neumann ATCC 25177) | MIC ([6]; Mycobacterium tuberculosis (Zopf) Lehmann and Neumann ATCC 35817)
32 µg/mL: MIC BALB/C Mouse Serum ([3]; BALB/C mouse serum […])
4 µg/mL: MIC ([9]; Enterobacter cloacae (ATCC 13047, MIC control strain), RSC 1240, CAA without human serum) | 45 hr MIC ([14]; M. smegmatis MC^2 155, Run #1) | 45 hr MIC ([14]; M. smegmatis MC^2 155, Run #2) | MIC ([15]; P. aeruginosa 453 (Human clinical isolate, HSS), RSC 1292) | MIC ([15]; P. aeruginosa (ATCC 14213, human hip wound), RSC 1111) | MIC ([15]; P. aeruginosa (ATCC 15152, abscess in middle ear), RSC 1110) | MIC ([15]; P. aeruginosa (ATCC 15692, infected wound), RSC 489) | MIC ([15]; P. aeruginosa (ATCC 15692, infected wound), RSC 1115) | MIC ([15]; P. aeruginosa (ATCC 17646, human liver abscess), RSC 1109) | MIC ([15]; P. aeruginosa (ATCC 25102, bacteriophage host), RSC 1114) | MIC ([15]; P. aeruginosa (ATCC 27853, MIC control strain), RSC 815) | MIC ([15]; P. aeruginosa (ATCC BAA-27, lab strain), RSC 1113) | MIC ([15]; P. aeruginosa (PAO1, alternate source, HER1018), RSC 490) | MIC ([20]; Klebsiella pneumoniae (ATCC 10031, MIC control strain), RSC 814) | MIC ([20]; Klebsiella pneumoniae (g2-3 HM35K), RSC 1138) | MIC ([20]; Klebsiella spp. (HM-223; gut of Crohn's disease patient), RSC 1131)
0.25 to 2 µg/mL: MIC Range [8, 22]
1: Fold change in MIC ([2]; CAA + 140 mM NaCl versus CAA without added NaCl)
0.5 µg/mL: MIC (μg/mL) against CFS-1292 in 100% CAA (1st run/2nd run) ([1]; 100% CAA, 1st run or single value) | MIC (μg/mL) against CFS-1292 in CAA + […] human serum ([1]; CAA + […] human serum) | MIC, CAA + 140 mM NaCl ([2]; CAA + 140 mM NaCl, P. aeruginosa CFS-1292) | MIC, CAA (no added NaCl) ([2]; CAA, no added NaCl, P. aeruginosa CFS-1292) | MIC CAA ([3]; CAA) | MIC Human Serum ([3]; human serum […]) | MIC50 [4, 21] | MIC ([7]; carbapenem-resistant isolate PA19) | MIC ([7]; carbapenem-resistant isolate WLC-452) | MIC50 [8, 22] | MIC50 [9, 23] | MIC ([10]; pH 7) | MIC ([10]; pH 8) | 45 hr MIC [11] | MIC ([12]; CAA media + 1 mM MgSO4) | MIC ([12]; CAA media alone) | 45 hr MIC [13] | MIC50 [16, 25] | MIC100 [16, 25] | MIC ([17]; CAA media alone)
2 µg/mL: MIC New Zealand White Rabbit Serum ([3]; New Zealand White rabbit serum […]) | MIC Sprague Dawley Rat Serum ([3]; Sprague Dawley rat serum […]) | 45 hr MIC [5] | MIC ([8]; E. coli (ATCC 25922, MIC control strain), RSC 813, CAA without human serum) | MIC ([8]; E. coli (HM346, colon, Crohn's disease), RSC 1212, CAA without human serum) | MIC100 [8, 22] | MIC ([15]; P. aeruginosa (ATCC 19142, tracheobronchial secretion), RSC 1108) | MIC ([16]; Acinetobacter baumannii (clinical isolate HSS), RSC 30, CAA without human serum) | MIC ([16]; Acinetobacter baumannii (clinical isolate HSS), RSC 32, CAA without human serum) | 45 hr MIC [19] | MIC ([20]; Klebsiella sp. (HM-44; colon, Crohn's disease), RSC 1139)
0.125 µg/mL: MIC ([4]; Klebsiella pneumoniae HM-44, CAA supplemented with human serum) | MIC ([16]; Acinetobacter baumannii ATCC BAA 747, CAA supplemented with human serum)
good activity: activity (good = MIC100 of ≤4) against all of P. aeruginosa, K. pneumoniae, A. baumannii, E. cloacae, and E. coli [18]
0.25 to 1 µg/mL: MIC Range [15, 24] | MIC Range [16, 25]
